Measurements published in PubChem BioAssay (NCI).
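Protocol summary: plate cells (96-well), add compound at 5 concentrations, incubate 48 h, interpolate endpoints linearly. TGI: total growth inhibition.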

Key:
Assay in all cases: NCI tumour cell line growth inhibition, 48 h
[1] = tested on: PC-3 prostate
[2] = tested on: 786-0 renal
[3] = tested on: SK-OV-3 ovarian
[4] = tested on: SF-539 CNS
[5] = tested on: DU-145 prostate
[6] = tested on: MOLT-4 leukemia
[7] = tested on: OVCAR-4 ovarian
[8] = tested on: NCI-H460 lung
[9] = tested on: LOX IMVI melanoma
[10] = tested on: SF-268 CNS
[11] = tested on: UACC-257 melanoma
[12] = tested on: MDA-MB-231 breast
[13] = tested on: HCT-116 colon
[14] = tested on: HCC-2998 colon
[15] = tested on: OVCAR-8 ovarian
[16] = tested on: KM12 colon
[17] = tested on: HS 578T breast
[18] = tested on: SR leukemia
[19] = tested on: UO-31 renal
[20] = tested on: OVCAR-3 ovarian
[21] = tested on: CAKI-1 renal
[22] = tested on: T-47D breast
[23] = tested on: NCI/ADR-RES ovarian
[24] = tested on: HT29 colon
[25] = tested on: COLO 205 colon
[26] = tested on: K-562 leukemia
[27] = tested on: RXF 393 renal
[28] = tested on: MDA-MB-435
[29] = tested on: U251 CNS
[30] = tested on: HOP-62 NSCLC
[31] = tested on: SF-295 CNS
[32] = tested on: MDA-N
[33] = tested on: IGROV1 ovarian
[34] = tested on: NCI-H23 lung
[35] = tested on: BT-549 breast
[36] = tested on: OVCAR-5 ovarian
[37] = tested on: SN12C renal
[38] = tested on: RPMI-8226 leukemia
[39] = tested on: NCI-H522 lung
[40] = tested on: EKVX NSCLC
[41] = tested on: HOP-92 NSCLC
[42] = tested on: SNB-19 CNS
[43] = tested on: TK-10 renal
[44] = tested on: SW-620 colon
[45] = tested on: CCRF-CEM leukemia
[46] = tested on: A549 NSCLC
[47] = tested on: SK-MEL-5 melanoma
[48] = tested on: HCT-15 colon
[49] = tested on: HL-60(TB) leukemia
[50] = tested on: MALME-3M melanoma
[51] = tested on: M14 melanoma
[52] = tested on: SK-MEL-2 melanoma
[53] = tested on: UACC-62 melanoma
[54] = tested on: NCI-H226 lung
[55] = tested on: SK-MEL-28 melanoma
[56] = tested on: ACHN renal
[57] = tested on: SNB-75 CNS
[58] = tested on: MCF7 breast
[59] = tested on: A498 renal

## O=CN(CCN1CCCC1)C1CCc2cc(Cl)c(Cl)cc2C1 (configuration not stated)
[1]
  TGI: 28.9 µM
[2]
  TGI: 19.9 µM
[3]
  TGI: 29 µM
[4]
  TGI: 48.2 µM
[5]
  TGI: > 100 µM
[6]
  TGI: 55 µM
[7]
  TGI: > 100 µM
[8]
  TGI: 21.4 µM
[9]
  TGI: 27.3 µM
[10]
  TGI: > 100 µM
[11]
  TGI: 30.5 µM
[12]
  TGI: 26.1 µM
[13]
  TGI: 24.9 µM
[14]
  TGI: 31.2 µM
[15]
  TGI: 48.6 µM
[16]
  TGI: 20.9 µM
[17]
  TGI: 42.3 µM
[18]
  TGI: 60.7 µM
[19]
  TGI: 27.1 µM
[20]
  TGI: 30.6 µM
[21]
  TGI: 53.8 µM
[22]
  TGI: 41.3 µM
[23]
  TGI: 61.2 µM
[24]
  TGI: 18.2 µM
[25]
  TGI: 37.8 µM
[26]
  TGI: 51.6 µM
[27]
  TGI: 28.8 µM
[28]
  TGI: 28.6 µM
[29]
  TGI: 24.6 µM
[30]
  TGI: 34.9 µM
[31]
  TGI: 19 µM
[32]
  TGI: 23.4 µM
[33]
  TGI: 97.6 µM
[34]
  TGI: 60 µM
[35]
  TGI: 27.7 µM
[36]
  TGI: 40.7 µM
[37]
  TGI: > 100 µM
[38]
  TGI: 45.3 µM
[39]
  TGI: 23 µM
[40]
  TGI: > 100 µM
[41]
  TGI: > 100 µM
[42]
  TGI: 75 µM
[43]
  TGI: 34.8 µM
[44]
  TGI: > 100 µM
[45]
  TGI: 43.9 µM
[46]
  TGI: 23.2 µM
[47]
  TGI: 42 µM
[48]
  TGI: 31.8 µM
[49]
  TGI: 37.2 µM
[50]
  TGI: 27.3 µM
[51]
  TGI: 29.3 µM

## Cc1ccc(-n2c(=O)c3nn4c(=O)n(-c5ccc(C)cc5)c(=O)c4nn3c2=O)cc1
[1]
  TGI: > 100 µM
[2]
  TGI: > 100 µM
[3]
  TGI: > 100 µM
[4]
  TGI: > 100 µM
[5]
  TGI: > 100 µM
[6]
  TGI: > 100 µM
[52]
  TGI: > 100 µM
[7]
  TGI: > 100 µM
[8]
  TGI: > 100 µM
[9]
  TGI: > 100 µM
[10]
  TGI: > 100 µM
[11]
  TGI: > 100 µM
[13]
  TGI: > 100 µM
[53]
  TGI: > 100 µM
[14]
  TGI: > 100 µM
[15]
  TGI: > 100 µM
[16]
  TGI: > 100 µM
[54]
  TGI: > 100 µM
[17]
  TGI: > 100 µM
[18]
  TGI: > 100 µM
[19]
  TGI: > 100 µM
[20]
  TGI: > 100 µM
[21]
  TGI: > 100 µM
[22]
  TGI: > 100 µM
[23]
  TGI: > 100 µM
[24]
  TGI: > 100 µM
[25]
  TGI: > 100 µM
[55]
  TGI: > 100 µM
[26]
  TGI: > 100 µM
[27]
  TGI: > 100 µM
[28]
  TGI: > 100 µM
[56]
  TGI: > 100 µM
[29]
  TGI: > 100 µM
[30]
  TGI: > 100 µM
[31]
  TGI: > 100 µM
[32]
  TGI: > 100 µM
[33]
  TGI: > 100 µM
[34]
  TGI: > 100 µM
[35]
  TGI: > 100 µM
[36]
  TGI: > 100 µM
[37]
  TGI: > 100 µM
[38]
  TGI: > 100 µM
[39]
  TGI: > 100 µM
[40]
  TGI: > 100 µM
[57]
  TGI: > 100 µM
[41]
  TGI: > 100 µM
[42]
  TGI: > 100 µM
[43]
  TGI: > 100 µM
[44]
  TGI: > 100 µM
[45]
  TGI: > 100 µM
[46]
  TGI: > 100 µM
[47]
  TGI: > 100 µM
[48]
  TGI: > 100 µM
[49]
  TGI: > 100 µM
[58]
  TGI: > 100 µM
[50]
  TGI: > 100 µM
[51]
  TGI: > 100 µM

## CC(C)(Cl)C(Br)CCC(C)(Br)C(Br)CBr (configuration not stated)
[1]
  TGI: 64.7 µM
[2]
  TGI: 31.2 µM
[3]
  TGI: > 100 µM
[4]
  TGI: 29 µM
[5]
  TGI: 39.2 µM
[6]
  TGI: 53.4 µM
[52]
  TGI: 30.3 µM
[7]
  TGI: 37.5 µM
[8]
  TGI: 31.1 µM
[10]
  TGI: 32.6 µM
[11]
  TGI: 37.5 µM
[12]
  TGI: 25.9 µM
[13]
  TGI: 29.5 µM
[53]
  TGI: 48.3 µM
[14]
  TGI: 25.8 µM
[15]
  TGI: 29.7 µM
[16]
  TGI: 36 µM
[54]
  TGI: 39.3 µM
[17]
  TGI: 46.5 µM
[19]
  TGI: 36.1 µM
[20]
  TGI: 29.9 µM
[22]
  TGI: 46.4 µM
[23]
  TGI: 31.6 µM
[24]
  TGI: 29.2 µM
[25]
  TGI: 31 µM
[55]
  TGI: 33.6 µM
[26]
  TGI: > 100 µM
[27]
  TGI: 38 µM
[28]
  TGI: 35.3 µM
[56]
  TGI: 31.9 µM
[29]
  TGI: 30.1 µM
[30]
  TGI: 32.5 µM
[31]
  TGI: 32.8 µM
[32]
  TGI: 43.1 µM
[33]
  TGI: 39.9 µM
[34]
  TGI: 38.6 µM
[59]
  TGI: 34.8 µM
[35]
  TGI: 42.8 µM
[36]
  TGI: 31.2 µM
[37]
  TGI: 35.8 µM
[38]
  TGI: 40.1 µM
[39]
  TGI: 26.5 µM
[40]
  TGI: 70.3 µM
[41]
  TGI: 48.6 µM
[42]
  TGI: 54.6 µM
[43]
  TGI: 62.2 µM
[44]
  TGI: 31.4 µM
[45]
  TGI: 28.7 µM
[46]
  TGI: 92.2 µM
[47]
  TGI: 28 µM
[48]
  TGI: 42.6 µM
[49]
  TGI: 36.5 µM
[50]
  TGI: 31.8 µM
[51]
  TGI: 33.7 µM
